Experimental data reported in paper PMC9732821, “Neurotrophic Activity and Its Modulation by Zinc Ion of a Dimeric Peptide Mimicking the Brain-Derived Neurotrophic Factor N-Terminal Region” (ACS Chemical Neuroscience, 2022).

Tested on: human TrkB
Test: TrkB phosphorylation, immunoprecipitation and western blot in SH-SY5Y cells transfected with hTrkB-EGFP
Format: cell-based
Conditions: 10 μM peptide, 10 min stimulation, normalized to ctrl; four replicas (peptides); one-way ANOVA with Bonferroni
Text: The possibility of mimicking the function of the full-length BDNF protein by using a linear peptide fragment encompassing the first 12 amino acids of the mature NT N-terminal was already postulated.[31] Here, we named this sequence as m-bdnf (Figure 1A) and performed a systematic comparison between the performance of the full-length human BDNF produced recombinantly in Escherichia coli([32]) and (i) m-bdnf, (ii) a dimeric peptide displaying two copies of the m-bdnf sequence covalently bound by a disulfide bridge (d-bdnf), and (iii) a monomeric peptide displaying the scrambled sequence of m-bdnf (s-bdnf). We first investigated the ability of these peptides to activate the TrkB receptor. To this purpose, we expressed a recombinant GFP fusion of human TrkB (Figure 1A) in SH-SY5Y cells. Then, cells were stimulated with BDNF or the related peptides. […] Then, the same cell-based assays for ERK phosphorylation were used to better elucidate the agonist properties of d-bdnf (Figure 1D). […] Specifically, an EC50 concentration of BDNF (1 nM) or of d-bdnf (10 μM) was used in combination with the increasing concentration of d-bdnf and BDNF, respectively, and the increase of ERK phosphorylation was assessed. […] Of note, we also performed a non-permeabilizing immunofluorescence analysis to quantify the membrane-bound BDNF in differentiated SH-SY5Y cells in the absence or presence of BDNF and d-bdnf (Figure S1C,D). […] The same increment was not observed upon treatment with the d-bdnf peptide, while instead we measured a slight (∼18%) decrease of the signal possibly due to the ability of the peptide to displace endogenous BDNF at the tested dose (10 μM). […]
Figure 1 Activation of the TrkB receptor by BDNF and its mimetic peptide ligands. […] (C) Scatter dot plot of ERK (left) and AKT (right) phosphorylation levels detected in differentiated SH-SY5Y cells, after stimulation with the same treatments as in (B). […] (G) Bar graph of mean ± SD ‘B-1’ values retrieved from N&B analysis for all the different conditions measured. […]

Row | Substance | TrkB phosphorylation (p-Tyr/TrkB band density)
1 | HSDPARRGELSV-NH2 [m-bdnf, linear peptide fragment encompassing the first 12 amino acids of the mature NT N-terminal] | only d-bdnf was able to promote a significant TrkB phosphorylation
2 | HSDPARRGELSVC-C-VSLEGRRAPDSH (disulfide) [d-bdnf] | significant TrkB phosphorylation (p < 0.05)
3 | SRAGPHLRDVSE-NH2 [s-bdnf] | only d-bdnf was able to promote a significant TrkB phosphorylation
